Measurements from paper PMC4138103 (PLoS ONE, 2014).
Where two headings read alike, the source gives them in different places.

Assays:
Sprague-Dawley rats [1] = tested on: Sprague-Dawley rats; parameters: method as in Roos et al., 2011; conditions: group mean, ref Roos et al., 2011, cited from earlier work
Sprague-Dawley rats [2] = test: Histopathology; format: in vivo, Rattus norvegicus; conditions: for Emax: Rattus norvegicus; for Large thyroid follicles (%), CED / Large thyroid follicles (%), CED-L: total dose based; for Adrenal zona fasciculata hypertrophy, CED: semi-quantitative staging; for Pituitary frontal lobe vacuoles or extracellular deposits, incidence: top dose (1700 mg/kg bw)
Text: After fixation, the samples were dehydrated, paraffinized and embedded according to standard sampling and trimming procedures. Sections of 4 µm were stained with hematoxylin and eosin in an automated way. Microscopic observations were done by initial unblinded comparison of control and top dose samples. […] Slide reading for such affected endpoints was refined by blind and/or semi-quantitative scoring.
For immunohistochemistry of TSH and ACTH in the pituitary routine sections were deparaffinized in a graded series of xylol/ethanol. Endogenous peroxidase activity was blocked in a 1/1 methanol/distilled water solution with 1/100 0.3% H2O2 added. […] Subsequent 60 min incubation with purified rabbit polyclonal IgG against rat TSH (Biogenesis), 1/1600 dilution, or against ACTH (Phoenix Pharmaceuticals), 1/1000 dilution, was followed by incubation with a biotinylated anti-rabbit second antibody in the case of TSH (1/200, 30 min; Vector) and avidin-biotin complex (Vector) according to instructions of the manufacturer; both antisera were diluted in the 1% blocking reagent solution, or with a peroxidase conjugated anti-rabbit second antibody (DAKO) in the case of ACTH. Immunostaining was completed with incubation with a standard diaminobenzidine (Sigma) solution for 5 min and counterstaining with hematoxylin (Mayer procedure). Immunostaining was evaluated by comparing the quantity and staining intensity of positive cells between control and high dose samples.
(§1) Data were also analyzed using the BMD method, which is based on dose-response modeling of the full data set using a nested family of exponential and Hill models. The analyses were done on data of males and females combined, using sex as a covariate. […] In that case, different Critical Effect Doses (CEDs) and CEDs at the lowest bound of the confidence interval (CED-L) were generated for each sex. If no difference between sexes is detected, a CED and CED-Ls for the combined data is generated. However, this was also done if the curve fits are close, and separate analyses for males and females were then performed manually. CEDs and CED-Ls were calculated at the predefined Critical Effect Size (CES) of 5% (EFSA standard) or 10%.

Sprague-Dawley rats [3] = test: Open field test for locomotor activity; format: in vivo, Rattus norvegicus; conditions: for Emax: Rattus norvegicus; for Habituation, distance, CED / Habituation, distance, CED-L / Habituation, time, CED / Habituation, time, CED-L / Percent distance in inner zone, day 24, CED / Percent distance in inner zone, day 24, CED-L / Percent time in inner zone, day 24, CED / Percent time in inner zone, day 24, CED-L: total dose based
Experimental: During the last 5 days of the study (days 24–28), rats were tested for locomotor activity in an octagonal open field (diameter 75 cm). The behavior was recorded on videotapes and automatically evaluated with a program for behavioral analyses (Ethovision, Noldus, NL). Each rat was tested for 5 min on each of the 5 days to allow the examination of habituation. Sequence of the rats to be tested was varied according to a permutation scheme to exclude a systematic influence of daytime on the outcome. For analyses, the area of the open field was divided in an inner zone (diameter 50 cm) and an outer ring (width 12.5 cm). Total distance moved during the recording period, distance moved in the inner zone of the open field, distance moved in outer zone, time in inner zone, and time in outer zone were extracted as parameters from the recordings.
as §1

[4] = F, CES 5%, model E4, adipose tissue concentration based
[5] = F, CES 10%, model E4, adipose tissue concentration based
[6] = females, adipose tissue concentration based
[7] = F, CES 5%, model E2, adipose tissue concentration based
[8] = F, CES 10%, model E2, adipose tissue concentration based
[9] = females, CES 5%, adipose tissue concentration based

Clc1cc(Cl)c(-c2cc(Cl)c(Cl)c(Cl)c2Cl)cc1Cl [PCB 180, 2,2′,3′,4,4′,5,5′-heptachlorobiphenyl]
Body weight (Sprague-Dawley rats [1]; females, total dose 3 mg/kg bw): 215 g | Body weight (Sprague-Dawley rats [1]; females, total dose 10 mg/kg bw): 210 g | Body weight (Sprague-Dawley rats [1]; females, total dose 30 mg/kg bw): 213 g | Body weight (Sprague-Dawley rats [1]; females, total dose 100 mg/kg bw): 211 g | Body weight (Sprague-Dawley rats [1]; females, total dose 300 mg/kg bw): 212 g | Body weight (Sprague-Dawley rats [1]; females, total dose 1000 mg/kg bw): 213 g | Body weight (Sprague-Dawley rats [1]; females, total dose 1700 mg/kg bw): 208 g | Body weight (Sprague-Dawley rats [1]; males, total dose 3 mg/kg bw): 306 g | Body weight (Sprague-Dawley rats [1]; males, total dose 10 mg/kg bw): 321 g | Body weight (Sprague-Dawley rats [1]; males, total dose 30 mg/kg bw): 324 g | Body weight (Sprague-Dawley rats [1]; males, total dose 100 mg/kg bw): 322 g | Body weight (Sprague-Dawley rats [1]; males, total dose 300 mg/kg bw): 325 g | Body weight (Sprague-Dawley rats [1]; males, total dose 1000 mg/kg bw): 315 g | Body weight (Sprague-Dawley rats [1]; males, total dose 1700 mg/kg bw): 310 g | CED, Large thyroid follicles (%) (Sprague-Dawley rats [2]; [4]): 105 µg/g lipid | CED-L, Large thyroid follicles (%) (Sprague-Dawley rats [2]; [4]): 52.7 µg/g lipid | CED, Large thyroid follicles (%) (Sprague-Dawley rats [2]; [5]): 218 µg/g lipid | CED-L, Large thyroid follicles (%) (Sprague-Dawley rats [2]; [5]): 110 µg/g lipid | Emax (Sprague-Dawley rats [2]; F, model E4, controls vs high dose according to the fitted model, read-out: Maximum response, Large thyroid follicles (%)): -70.9% | Emax (Sprague-Dawley rats [2]; females, controls vs high dose, fitted model, read-out: Large thyroid follicles (%), Maximum response): -71% | Hyperemia of inner zones of adrenal cortex, CEDL (Sprague-Dawley rats [2]; females): 2526 mg/kg bw | Activation of adrenal zona fasciculata, difference in CED values between genders (Sprague-Dawley rats [2]; females more sensitive, semi-quantitative evaluation): 297 fold | Large thyroid follicles (%), CED (Sprague-Dawley rats [2]; females, CES 5%): 22.6 mg/kg bw | Large thyroid follicles (%), CED-L (Sprague-Dawley rats [2]; females, CES 5%): 11.6 mg/kg bw | Large thyroid follicles (%), CED (Sprague-Dawley rats [2]; females, CES 10%): 131 mg/kg bw | Large thyroid follicles (%), CED-L (Sprague-Dawley rats [2]; females, CES 10%): 81.0 mg/kg bw | Area of large thyroid follicles, CED (Sprague-Dawley rats [2]; [6]): 105 µg/g lipid | Thyroid follicle depletion in females, CED (Fig. 7C) (Sprague-Dawley rats [2]; females, legend says CES 5%): 131 | Thyroid follicle depletion in females, CED-L05 (Fig. 7C) (Sprague-Dawley rats [2]; females, legend says CES 5%): 80.5 | Thyroid follicle depletion in females, CED-L95 (Fig. 7C) (Sprague-Dawley rats [2]; females, legend says CES 5%): 213.3 | Adrenal zona fasciculata hypertrophy, CED (Sprague-Dawley rats [2]; females): 2.0 mg/kg bw | Pituitary frontal lobe vacuoles or extracellular deposits, incidence (Sprague-Dawley rats [2]; females): 2/5 | Adrenal zona fasciculata hypertrophy, CED (Sprague-Dawley rats [2]; males): 594 mg/kg bw | Pituitary frontal lobe vacuoles or extracellular deposits, incidence (Sprague-Dawley rats [2]; males): 4/5 | CED, Habituation, distance (Sprague-Dawley rats [3]; [7]): 1340 µg/g lipid | CED, Habituation, time (Sprague-Dawley rats [3]; [7]): 1130 µg/g lipid | CED-L, Habituation, distance (Sprague-Dawley rats [3]; [7]): 865 µg/g lipid | CED-L, Habituation, time (Sprague-Dawley rats [3]; [7]): 739 µg/g lipid | CED, Percent distance in inner zone, day 24 (Sprague-Dawley rats [3]; [4]): 4.12 µg/g lipid | CED, Percent time in inner zone, day 24 (Sprague-Dawley rats [3]; [4]): 1.55 µg/g lipid | CED-L, Percent distance in inner zone, day 24 (Sprague-Dawley rats [3]; [4]): 1.16 µg/g lipid | CED-L, Percent time in inner zone, day 24 (Sprague-Dawley rats [3]; [4]): 0.525 µg/g lipid | CED, Habituation, distance (Sprague-Dawley rats [3]; [8]): 2740 µg/g lipid | CED, Habituation, time (Sprague-Dawley rats [3]; [8]): 2320 µg/g lipid | CED-L, Habituation, distance (Sprague-Dawley rats [3]; [8]): 1777 µg/g lipid | CED-L, Habituation, time (Sprague-Dawley rats [3]; [8]): 1518 µg/g lipid | CED, Percent distance in inner zone, day 24 (Sprague-Dawley rats [3]; [5]): 8.69 µg/g lipid | CED, Percent time in inner zone, day 24 (Sprague-Dawley rats [3]; [5]): 3.17 µg/g lipid | CED-L, Percent distance in inner zone, day 24 (Sprague-Dawley rats [3]; [5]): 2.423 µg/g lipid | CED-L, Percent time in inner zone, day 24 (Sprague-Dawley rats [3]; [5]): 1.07 µg/g lipid | Emax (Sprague-Dawley rats [3]; 576 h, F, model E4, controls vs high dose according to the fitted model, read-out: Maximum response, Percent distance in inner zone, day 24): 53% | Emax (Sprague-Dawley rats [3]; 576 h, F, model E4, controls vs high dose according to the fitted model, read-out: Maximum response, Percent time in inner zone, day 24): 111% | Emax (Sprague-Dawley rats [3]; 576 h, females, controls vs high dose, fitted model, read-out: Percent distance in inner zone, day 24, Maximum response): 53% | Emax (Sprague-Dawley rats [3]; 576 h, females, controls vs high dose, fitted model, read-out: Percent time in inner zone, day 24, Maximum response): 107% | Emax (Sprague-Dawley rats [3]; F, model E2, controls vs high dose according to the fitted model, read-out: Maximum response, Habituation, distance): -35.2% | Emax (Sprague-Dawley rats [3]; F, model E2, controls vs high dose according to the fitted model, read-out: Maximum response, Habituation, time): -40.1% | Emax (Sprague-Dawley rats [3]; females, controls vs high dose, fitted model, read-out: Habituation, distance, Maximum response): -33.2% | Emax (Sprague-Dawley rats [3]; females, controls vs high dose, fitted model, read-out: Habituation, time, Maximum response): -37.7% | Percentage of distance moved in inner zone, day 24, CED (Sprague-Dawley rats [3]; [9]): 4.12 µg/g lipid | Percentage of time in inner zone, day 24, CED (Sprague-Dawley rats [3]; [9]): 1.55 µg/g lipid | Habituation, distance, CED (Sprague-Dawley rats [3]; females, CES 5%): 216 mg/kg bw | Habituation, distance, CED-L (Sprague-Dawley rats [3]; females, CES 5%): 138 mg/kg bw | Habituation, time, CED (Sprague-Dawley rats [3]; females, CES 5%): 184 mg/kg bw | Habituation, time, CED-L (Sprague-Dawley rats [3]; females, CES 5%): 118 mg/kg bw | Percent distance in inner zone, day 24, CED (Sprague-Dawley rats [3]; females, CES 5%): 0.87 mg/kg bw | Percent distance in inner zone, day 24, CED-L (Sprague-Dawley rats [3]; females, CES 5%): 0.25 mg/kg bw | Percent time in inner zone, day 24, CED (Sprague-Dawley rats [3]; females, CES 5%): 0.35 mg/kg bw | Percent time in inner zone, day 24, CED-L (Sprague-Dawley rats [3]; females, CES 5%): 0.11 mg/kg bw | Habituation, distance, CED (Sprague-Dawley rats [3]; females, CES 10%): 444 mg/kg bw | Habituation, distance, CED-L (Sprague-Dawley rats [3]; females, CES 10%): 283 mg/kg bw | Habituation, time, CED (Sprague-Dawley rats [3]; females, CES 10%): 378 mg/kg bw | Habituation, time, CED-L (Sprague-Dawley rats [3]; females, CES 10%): 243 mg/kg bw | Percent distance in inner zone, day 24, CED (Sprague-Dawley rats [3]; females, CES 10%): 1.84 mg/kg bw | Percent distance in inner zone, day 24, CED-L (Sprague-Dawley rats [3]; females, CES 10%): 0.53 mg/kg bw | Percent time in inner zone, day 24, CED (Sprague-Dawley rats [3]; females, CES 10%): 0.71 mg/kg bw | Percent time in inner zone, day 24, CED-L (Sprague-Dawley rats [3]; females, CES 10%): 0.23 mg/kg bw | Habituation, percentage of distance moved, CED (Sprague-Dawley rats [3]; [6]): 1340 µg/g lipid | Habituation, time in inner zone, CED (Sprague-Dawley rats [3]; [6]): 1130 µg/g lipid | Spontanous locomotor activity, CED-L (Sprague-Dawley rats [3]; [6]): 525 ng/g lipid | Altered open field behavior, CED-L (Sprague-Dawley rats [3]; females, critical effect for risk characterization): 0.525 µg/g lipid | Open field behavior, dose-response relations (Sprague-Dawley rats [3]; males): No significant dose-response relations
